Data published in PubChem BioAssay AID330 (DTP/NCI, 2004).
Values joined by “and” are separate entries in the source; they are usually repeats but may differ in a detail not shown here. Equal values may be shown once. Inconclusive results and toxic doses are left out. Rule for the calls: active = survival T/C of 150% or more; inactive = T/C below 125% in these data.

System: P388 leukemia ip, CD2F1 mice, survival T/C
Assay: NCI In Vivo Anticancer Drug Screen. Data for tumor model P388 Leukemia (intraperitoneal) in CD2F1 (CDF1) mice
Conditions: endpoint: median survival time, higher = longer survival
Method in brief: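 Mice carrying the transplanted tumor received test compound or vehicle. Survival was recorded in each group, and the value is the treated-group measurement divided by that of the vehicle-treated control group.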

[1] = dose: 60.0 mg/kg/injection, schedule: Q01DX005 (ip), vehicle: saline with Tween-80
[2] = dose: 120.0 mg/kg/injection, schedule: Q01DX005 (ip), vehicle: saline with Tween-80
[3] = dose: 240.0 mg/kg/injection, schedule: Q01DX005 (ip), vehicle: saline with Tween-80
[4] = dose: 50.0 mg/kg/injection, schedule: Q01DX005 (ip), vehicle: Klucel (hydroxypropylcellulose) (HPC)
[5] = dose: 100.0 mg/kg/injection, schedule: Q01DX005 (ip), vehicle: Klucel (hydroxypropylcellulose) (HPC)
[6] = dose: 200.0 mg/kg/injection, schedule: Q01DX005 (ip), vehicle: Klucel (hydroxypropylcellulose) (HPC)
[7] = dose: 50.0 mg/kg/injection, schedule: Q01DX009 (ip), vehicle: Klucel (hydroxypropylcellulose) (HPC)
[8] = dose: 100.0 mg/kg/injection, schedule: Q01DX009 (ip), vehicle: Klucel (hydroxypropylcellulose) (HPC)
[9] = dose: 200.0 mg/kg/injection, schedule: Q01DX009 (ip), vehicle: Klucel (hydroxypropylcellulose) (HPC)
[10] = dose: 25.0 mg/kg/injection, schedule: Q04DX002 (ip), vehicle: Klucel (hydroxypropylcellulose) (HPC)
[11] = dose: 50.0 mg/kg/injection, schedule: Q04DX002 (ip), vehicle: Klucel (hydroxypropylcellulose) (HPC)
[12] = dose: 50.0 mg/kg/injection, schedule: Q01DX005 (ip), vehicle: saline with Tween-80
[13] = dose: 100.0 mg/kg/injection, schedule: Q01DX005 (ip), vehicle: saline with Tween-80
[14] = dose: 200.0 mg/kg/injection, schedule: Q01DX005 (ip), vehicle: saline with Tween-80

Measured: T/C

OCC(CO)c1ccccc1
inactive: dose: 37.5 mg/kg/injection, schedule: Q04DX003 (ip), vehicle: saline 97 % of control | dose: 75.0 mg/kg/injection, schedule: Q04DX003 (ip), vehicle: saline 100 % of control | dose: 150.0 mg/kg/injection, schedule: Q04DX003 (ip), vehicle: saline 100 % of control

COC(=O)c1nnn(-c2cc(Cl)ccc2Cl)c1C(=O)c1ccc(Cl)c(Cl)c1
inactive: [1] 99 % of control | [2] 96 % of control | [3] 87 % of control

COc1ccccc1[B-]12OCC[N+]1(CNC(=O)c1ccccc1O)CCO2 (stereo unspecified)
inactive: [4] 102 % of control | [5] 103 % of control | [6] 103 % of control

NC(CC(=O)c1ccc(O)cc1)C(=O)O (stereo unspecified)
inactive: [7] 99 % of control | [8] 100 % of control | [9] 92 % of control

CCCCCCCC/C=C\CCCCCCCCN=Cc1c(O)c(O)c(C(C)C)c2cc(C)c(-c3c(C)cc4c(C(C)C)c(O)c(O)c(C=NCCCCCCCC/C=C\CCCCCCCC)c4c3O)c(O)c12
inactive: dose: 25.0 mg/kg/injection, schedule: Q01DX005 (ip), vehicle: saline + Tween-80 + alcohol 105 % of control | dose: 50.0 mg/kg/injection, schedule: Q01DX005 (ip), vehicle: saline + Tween-80 + alcohol 105 % of control | dose: 100.0 mg/kg/injection, schedule: Q01DX005 (ip), vehicle: saline + Tween-80 + alcohol 100 % of control | dose: 200.0 mg/kg/injection, schedule: Q01DX005 (ip), vehicle: saline + Tween-80 + alcohol 105 % of control

CCCC1CC[N-]CC1.CCCC1CC[N-]CC1.[Br][Pt+2]([Br])([Br])[Br]
inactive: dose: 1.56 mg/kg/injection, schedule: Q01DX009 (ip), vehicle: saline with Tween-80 94 % of control | dose: 3.13 mg/kg/injection, schedule: Q01DX009 (ip), vehicle: saline with Tween-80 87 % of control | dose: 6.25 mg/kg/injection, schedule: Q01DX009 (ip), vehicle: saline with Tween-80 95 % of control | dose: 12.5 mg/kg/injection, schedule: Q01DX009 (ip), vehicle: saline with Tween-80 98 % of control | dose: 25.0 mg/kg/injection, schedule: Q01DX009 (ip), vehicle: saline with Tween-80 123 % of control

C1=CN2CC(c3ccccc3)N=C2S1 (stereo unspecified)
inactive: dose: 12.5 mg/kg/injection, schedule: Q01DX009 (ip), vehicle: other 99 % of control | dose: 25.0 mg/kg/injection, schedule: Q01DX009 (ip), vehicle: other 102 % of control

c1ccc(CN2CSC3CCCCC32)cc1 (stereo unspecified)
inactive: dose: 25.0 mg/kg/injection, schedule: Q01DX005 (ip), vehicle: saline 102 % of control | dose: 50.0 mg/kg/injection, schedule: Q01DX005 (ip), vehicle: saline 109 % of control and 110 % of control | dose: 100.0 mg/kg/injection, schedule: Q01DX005 (ip), vehicle: saline 107 % of control and 118 % of control | dose: 200.0 mg/kg/injection, schedule: Q01DX005 (ip), vehicle: saline 120 % of control

Cc1cc(SCC(=O)c2ccc(Br)cc2)cc(C)[o+]1
inactive: dose: 50.0 mg/kg/injection, schedule: Q01DX009 (ip), vehicle: saline with Tween-80 100 % of control | dose: 100.0 mg/kg/injection, schedule: Q01DX009 (ip), vehicle: saline with Tween-80 86 % of control | dose: 100.0 mg/kg/injection, schedule: Q04DX003 (ip), vehicle: saline with Tween-80 104 % of control | dose: 200.0 mg/kg/injection, schedule: Q04DX003 (ip), vehicle: saline with Tween-80 114 % of control

c1ccc2sc(SNC3CCCCC3)nc2c1
inactive: dose: 25.0 mg/kg/injection, schedule: Q01DX009 (ip), vehicle: Klucel (hydroxypropylcellulose) (HPC) 103 % of control | [10] 94 % of control | [7] 104 % of control | [11] 95 % of control | [8] 100 % of control | dose: 100.0 mg/kg/injection, schedule: Q04DX002 (ip), vehicle: Klucel (hydroxypropylcellulose) (HPC) 94 % of control | dose: 100.0 mg/kg/injection, schedule: Q04DX002 (ip), vehicle: saline 101 % of control | [9] 101 % of control | dose: 200.0 mg/kg/injection, schedule: Q04DX002 (ip), vehicle: saline 109 % of control | dose: 400.0 mg/kg/injection, schedule: Q04DX002 (ip), vehicle: saline 113 % of control

CCCCC(CN(C)C)C(=O)/C=C/c1ccccc1 (stereo unspecified)
inactive: dose: 60.0 mg/kg/injection, schedule: Q01DX005 (ip), vehicle: saline 109 % of control | dose: 120.0 mg/kg/injection, schedule: Q01DX005 (ip), vehicle: saline 123 % of control

COc1cc2c(cc1OC)C(CCN1C(=O)CCC1=O)=NCC2
inactive: dose: 50.0 mg/kg/injection, schedule: Q01DX009 (ip), vehicle: saline sonified 100 % of control | dose: 100.0 mg/kg/injection, schedule: Q01DX009 (ip), vehicle: saline sonified 100 % of control | dose: 200.0 mg/kg/injection, schedule: Q01DX009 (ip), vehicle: saline sonified 95 % of control

O=C(O)C1C2OC3C(OC(=O)C31)C2Br (stereo unspecified)
inactive: [12] 100 % of control | [13] 94 % of control | [14] 103 % of control

c1ccc(Nc2nnnn2C2CCCCC2)cc1
inactive: dose: 6.25 mg/kg/injection, schedule: Q01DX009 (ip), vehicle: saline 101 % of control | dose: 12.5 mg/kg/injection, schedule: Q01DX009 (ip), vehicle: saline 105 % of control | dose: 25.0 mg/kg/injection, schedule: Q01DX009 (ip), vehicle: saline 100 % of control | dose: 50.0 mg/kg/injection, schedule: Q01DX009 (ip), vehicle: saline 108 % of control

COc1cc2c(cc1OC)[C@H]1[C@H](C)c3ccc4c(c3CN1CC2)OCO4
inactive: dose: 12.5 mg/kg/injection, schedule: Q04DX002 (ip), vehicle: Klucel (hydroxypropylcellulose) (HPC) 97 % of control | [10] 95 % of control | [11] 103 % of control and 106 % of control

C/C(=N\N=c1\sc2ccccc2n1CC(=O)O)c1ccc(C)cc1
inactive: dose: 100.0 mg/kg/injection, schedule: Q01DX001 (ip), vehicle: saline with Tween-80 102 % of control | dose: 200.0 mg/kg/injection, schedule: Q01DX001 (ip), vehicle: saline with Tween-80 106 % of control | dose: 400.0 mg/kg/injection, schedule: Q01DX001 (ip), vehicle: saline with Tween-80 101 % of control

COc1ccc(Cc2cc3c(cc2OCCOC(C)=O)OCO3)cc1
inactive: [12] 110 % of control | [13] 105 % of control | [14] 103 % of control

CC(C)(C)[Si](C)(C)ONC(=O)c1ccccc1
inactive: dose: 6.25 mg/kg/injection, schedule: Q01DX009 (ip), vehicle: distilled water + Tween-80 100 % of control | dose: 12.5 mg/kg/injection, schedule: Q01DX009 (ip), vehicle: distilled water + Tween-80 98 % of control | dose: 25.0 mg/kg/injection, schedule: Q01DX009 (ip), vehicle: distilled water + Tween-80 107 % of control | dose: 50.0 mg/kg/injection, schedule: Q01DX009 (ip), vehicle: distilled water + Tween-80 91 % of control | dose: 100.0 mg/kg/injection, schedule: Q01DX009 (ip), vehicle: distilled water + Tween-80 100 % of control | dose: 200.0 mg/kg/injection, schedule: Q01DX009 (ip), vehicle: distilled water + Tween-80 98 % of control | dose: 400.0 mg/kg/injection, schedule: Q01DX009 (ip), vehicle: distilled water + Tween-80 100 % of control

C=C1C(=O)OC2C(OC(C)=O)CCCC12 (stereo unspecified)
inactive: dose: 60.0 mg/kg/injection, schedule: Q01DX005 (ip), vehicle: Klucel (hydroxypropylcellulose) (HPC) 112 % of control | dose: 120.0 mg/kg/injection, schedule: Q01DX005 (ip), vehicle: Klucel (hydroxypropylcellulose) (HPC) 103 % of control | dose: 240.0 mg/kg/injection, schedule: Q01DX005 (ip), vehicle: Klucel (hydroxypropylcellulose) (HPC) 108 % of control

CCOC(=O)C/C(C)=C1/N=C(c2ccccc2)OC1=O
inactive: [1] 91 % of control | [2] 91 % of control | [3] 92 % of control

OC(CCl)Cn1nc2ccc3ccccc3c2n1 (stereo unspecified)
inactive: [4] 102 % of control | [5] 100 % of control | dose: 100.0 mg/kg/injection, schedule: Q04DX003 (ip), vehicle: Klucel (hydroxypropylcellulose) (HPC) 103 % of control | [6] 101 % of control | dose: 200.0 mg/kg/injection, schedule: Q04DX003 (ip), vehicle: Klucel (hydroxypropylcellulose) (HPC) 102 % of control | dose: 400.0 mg/kg/injection, schedule: Q04DX003 (ip), vehicle: Klucel (hydroxypropylcellulose) (HPC) 96 % of control
